Measurements from BigSolDB 2.1.

CS(=O)(=O)OCCCCOS(C)(=O)=O
solubility (mole fraction)
Conditions	278.15 K	283.15 K	288.15 K	293.15 K	298.15 K	303.15 K	308.15 K	313.15 K	318.15 K	323.15 K
in 2-butoxyethanol	0.000161	0.000208	0.000261	0.000332	0.000417	0.000522	0.00066	0.000811	0.00102	0.00124
in 2-ethoxyethanol	0.000166	0.000255	0.000389	0.000587	0.000857	0.00128	0.00179	0.00259	0.00367	0.00511
in 2-methoxyethanol	0.000446	0.000675	0.00104	0.00149	0.0022	0.00311	0.00438	0.00609	0.0085	0.0118
in 2-propoxyethanol	0.000168	0.000221	0.00031	0.000398	0.00053	0.000693	0.000905	0.00118	0.00155	0.00196
in DMF	0.0116	0.0151	0.0194	0.0248	0.0317	0.0397	0.0495	0.0611	0.076	0.0929
in DMSO	–	–	–	–	0.0367	0.0459	0.0567	0.0695	0.0851	0.103
in NMP	0.0172	0.0215	0.0266	0.0328	0.0401	0.0487	0.059	0.0713	0.0853	0.102
in ethanol	1.55e-05	2.49e-05	3.95e-05	6.08e-05	9.34e-05	0.000142	0.000211	0.000315	0.00046	0.000655
in ethyl acetate	0.000385	0.000575	0.00081	0.00112	0.0016	0.00209	0.00287	0.0038	0.00525	0.00705
in methanol	4.32e-05	6.97e-05	0.000107	0.000167	0.000251	0.000379	0.000555	0.000813	0.00119	0.00169
in methyl acetate	0.000892	0.00109	0.00179	0.00248	0.00323	0.0045	0.00592	0.008	0.0107	0.0145
in n-butanol	6.8e-06	1.09e-05	1.72e-05	2.66e-05	4.22e-05	6.35e-05	9.25e-05	0.000135	0.000191	0.000276
in n-butyl acetate	0.000209	0.000289	0.000402	0.000549	0.000785	0.000962	0.00122	0.00175	0.00218	0.00281
in n-propanol	4.5e-06	8e-06	1.43e-05	2.4e-05	4.05e-05	6.68e-05	0.000107	0.000173	0.000277	0.000444
in n-propyl acetate	0.00016	0.000298	0.000468	0.000649	0.00101	0.00137	0.00195	0.00272	0.00386	0.00531
